The text below walks through data of publication PMC6123649, “Structural basis for specific inhibition of the highly sensitive ShHTL7 receptor” (EMBO Reports, 2018).

One series concerns the target T1, OsD14 (Oryza sativa subsp. japonica, UniProt Q10QA5).
T1 construct: made in house; host or cells: E. coli BL21 (DE3)
T1 sequence (Q10QA5 1-318): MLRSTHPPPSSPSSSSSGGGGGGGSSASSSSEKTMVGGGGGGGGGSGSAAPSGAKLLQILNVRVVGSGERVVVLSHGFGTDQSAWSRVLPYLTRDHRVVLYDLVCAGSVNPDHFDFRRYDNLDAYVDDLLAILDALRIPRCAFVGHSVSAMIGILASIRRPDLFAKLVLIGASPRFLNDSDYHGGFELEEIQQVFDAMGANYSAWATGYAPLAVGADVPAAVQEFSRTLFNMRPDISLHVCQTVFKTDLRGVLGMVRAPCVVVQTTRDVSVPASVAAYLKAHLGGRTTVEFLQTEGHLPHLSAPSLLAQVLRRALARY
Description: YLG hydrolysis assay. It is filed as biochemical. The method, then: In vitro YLG hydrolysis assays were performed using 3 μM of ShHTL7, ShHTL7‐L143Y, AtD14, and OsD14 in a reaction buffer (1× PBS) with 0.1% dimethyl sulfoxide (DMSO) in a 100 μl volume on a 96‐well black plate (Greiner). The fluorescent intensity was measured by SpectraMax i3 (Molecular Devices) using an excitation wavelength of 480 nm and a detection wavelength of 520 nm. ShHTL7, ShHTL7‐L143Y, AtD14, and OsD14 were mixed with Triton X‐100, using serial dilutions to cover the Triton X‐100 concentration range from 5 μM until 4.87 nM. Protein‐Triton mixes were pre‐incubated for 30 min. 1 μM YLG (Tokyo Chemical Industry Co. Ltd.) was then added, and the assay was incubated for 60 min. The change in fluorescence observed over the course of 1 h incubation of YLG in buffer without protein was subtracted from the data collected in the presence of protein. The resulting relative fluorescence values were analyzed. The inhibitory curves and IC50 values were plotted using GraphPad (Prism 6) four‐parameter logistic curve. The rate of YLG hydrolysis by ShHTL7 was recorded following the above method at 10‐min interval for 2 h.

Series [1] has as its target T2, ShHTL7 (Striga hermonthica, UniProt A0A0M3PNA2).
T2 sequence (A0A0M3PNA2 1-271): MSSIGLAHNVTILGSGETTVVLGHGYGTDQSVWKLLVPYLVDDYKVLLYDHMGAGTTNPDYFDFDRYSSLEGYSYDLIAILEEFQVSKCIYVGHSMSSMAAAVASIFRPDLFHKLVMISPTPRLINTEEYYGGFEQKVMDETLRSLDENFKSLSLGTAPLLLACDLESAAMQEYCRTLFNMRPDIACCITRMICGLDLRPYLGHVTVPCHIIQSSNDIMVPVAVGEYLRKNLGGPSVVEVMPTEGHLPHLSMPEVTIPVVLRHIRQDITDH
Description: Differential static light scattering (DSLS), aggregation temperature. Format: binding. How it is done:
The specific aggregation temperature, T agg, at which ShHTL7, ShHTL7L143Y, AtD14, and OsD14 aggregated in the presence or absence of Triton X‐100, GR24, and PAA was measured using DSLS on the Stargazer system (Harbinger Biotechnology and Engineering Corporation, Markham, Canada). Protein samples at a concentration of 10 μM were overlaid with mineral oil in a clear bottom 384‐well black plate (Corning) and heated from 20 to 95°C at 1°C/min; light scattering was detected by a CCD camera every 0.5°C in the presence or absence of varying concentrations of Triton X‐100, GR24, and PAA yielding the difference in aggregation temperature at a particular concentration from apoproteins (ΔT agg). Data were normalized, and ΔT agg plotted against the Triton X‐100, GR24, and PAA concentration. Resulting data were plotted to determine the change in T agg of all proteins when bound to Triton X‐100, GR24, and PAA using GraphPad (Prism 6).

The test system of series [2] is rice seeds cv. Nipponbare. Description: Rice seed germination assay and growth of seedlings. Format: in vivo. The settings on record: 15 μM of Triton. The method, then: The rice seeds cv. Nipponbare were surface‐sterilized using 50 ml (2.5%) sodium hypochlorite with 0.4% of Tween‐20 for 15 min. After six subsequent washing steps with sterilized water, the rice seeds were kept in water at 30°C for overnight imbibition. About 2 ml of Triton X‐100 concentrations ranging from 1 to 100 μM and sterile MilliQ water (control) was added in 24‐well plates with six replications. One sterilized rice seed was put in each well and allowed to germinate for 48 h at 30°C. The germinated (radicle emergence) and non‐germinated seeds were recorded, and germination percentage was calculated. Then, same seeds were allowed to grow under light in growth cabinet for another 1 week. The length of […] seedlings was measured with roller and averaged.

Series [3] deals with ShHTL7 L143Y binding to ShMAX2. Description: GST pulldown of ShMAX2. Format: biochemical, Striga hermonthica. The method, then: (§1) Purified GST‐ShHTL7 wt, ShHTL7 L143Y, and ShHTL7‐H246N mutants were bound to the Glutathione Sepharose 4B Beads, where Triton is used in the lysis step and in certain samples Tween‐20 was used instead of Triton. Bound proteins were incubated with 20 μM GR24 and His6‐ShMAX2 lysate for 2 h and then washed with lysis buffer for three times and then ShHTL7 wt and mutants were eluted with the addition of 20 mM reduced glutathione. Thus, eluted protein was subjected to Western blot using antibody specific to 6XHis (anti‐His).

In series [4] the test system is GR24‐dependent interaction of ShHTL7 with ShMAX2. Description: GST pulldown of ShMAX2. It is filed as biochemical, Striga hermonthica. The settings on record: pre‐incubation of ShHTL7 with Triton; 20 μM GR24. The method, then: as §1
Series [5] deals with T2, ShHTL7. Nature of the series: Drug affinity response target stability (DARTS) assay. The settings on record: 100 μM compound; proteinase K 10 μg/ml. It is filed as binding. The method, then:
ShHTL7 and mutants were diluted to a concentration of 30 μM in 50 mM Tris–HCl pH 7.5, 150 mM NaCl, 0.005% Tween‐20, incubated with GR24 at final concentration of 100 μM for 5 min, and separately with 100 μM Triton X‐100 for 2 h. One sample was kept aside for use as an undigested control. Proteinase K (Hampton Research) was then added to ShHTL7 protein to a final protease concentration of 10 μg/ml. Reactions were incubated at room temperature for 5 min and then SDS–PAGE loading buffer was added to stop the reaction, and the samples were immediately boiled for 3 min. Equal amounts of each sample, corresponding to 10 μg of protein, were run on a 4–20% gradient polyacrylamide gel (Bio‐Rad) and analyzed by Coomassie Blue staining 32.

The next series relates to Orobanche minor. Details: method as in PMID 23915294. The settings on record: concentrations above 0.001%; cited from earlier work.

Entries after “also recorded” stand apart in the source; their conditions may differ.

Turning to Triton X-100, at OsD14 (5 μM Triton), the “decrease of YLG hydrolysis rate” value was determined as 10%. Moreover, the “effect on YLG hydrolysis activity” value on OsD14 (Triton up to 0.5 μM) is given as “did not impact”. In addition, at ShHTL7 [1] (10 μM protein, varying compound concentrations), the “effect on ShHTL7 aggregation temperature (T agg)” value was “increases; also recorded: stabilized”. The “effect of Triton pre‐incubation on GR24-induced T agg changes in ShHTL7” value at ShHTL7 [1] (pre‐incubation with Triton, then GR24) is recorded as “efficiently blocked”. For the same substance, in series [2], the “effect on rice seed germination” value was “did neither inhibit” and the “effect on rice seedling growth” value is “nor affected seedling growth”. The “inhibition of ShMAX2 binding of ShHTL7 L143Y” value in series [3] was “did not inhibit”. In addition, the “effect on GR24‐dependent interaction of ShHTL7 with ShMAX2” value in series [4] was “inhibited”. The “protection of ShHTL7 from digestion by proteinase K” value on ShHTL7 [5] is reported as “efficiently protected”. In addition, the “effect on seed germination” value with Orobanche minor was “hindered seed germination”.
